Data as given in the NIST ThermoML archive (doi:10.1016/j.jct.2019.06.032).
Numbers after ± are expanded uncertainties.

Assays:
[1] = 101 kPa, Liquid; for viscosity: Capillary tube (Ostwald / Ubbelohde) method; for mass density: Vibrating tube method
[2] = xn = mol fraction of the nth substance listed; conditions: 101 kPa, Liquid; for viscosity: Capillary tube (Ostwald / Ubbelohde) method; for mass density: Vibrating tube method

What does the source list for NCCO [2-aminoethan-1-ol]?
viscosity ([1]; 293.15 K): 23.79 ± 4.8 mPa·s; mass density ([1]; 293.15 K): 1016.9 ± 10 kg/m3; viscosity ([1]; 303.15 K): 14.83 ± 3 mPa·s; mass density ([1]; 303.15 K): 1009.5 ± 10 kg/m3; viscosity ([1]; 313.15 K): 9.89 ± 2 mPa·s; mass density ([1]; 313.15 K): 1001.1 ± 10 kg/m3; viscosity ([1]; 323.15 K): 6.872 ± 1.4 mPa·s; mass density ([1]; 323.15 K): 992.7 ± 10 kg/m3; viscosity ([1]; 333.15 K): 4.99 ± 1 mPa·s; mass density ([1]; 333.15 K): 984.3 ± 10 kg/m3

For NCCO [2-aminoethan-1-ol] + CCN(CC)CCO, which viscosity ([2]; 293.15 K, x1 = 1) is on record?
The viscosity was 23.79 ± 4.8 mPa·s.

And the mass density ([2]; 293.15 K, x1 = 1)?
Its mass density is 1016.9 ± 10 kg/m3.

And the viscosity ([2]; 303.15 K, x1 = 1)?
The viscosity was 14.83 ± 3 mPa·s.

What about the mass density ([2]; 303.15 K, x1 = 1) of the same compound?
The mass density was 1009.5 ± 10 kg/m3.

And the viscosity ([2]; 313.15 K, x1 = 1)?
The viscosity was 9.89 ± 2 mPa·s.

What about the mass density ([2]; 313.15 K, x1 = 1) of the same compound?
Its mass density is 1001.1 ± 10 kg/m3.

What about the viscosity ([2]; 323.15 K, x1 = 1) of the same compound?
The viscosity was 6.872 ± 1.4 mPa·s.

And the mass density ([2]; 323.15 K, x1 = 1)?
Its mass density is 992.7 ± 10 kg/m3.

And the viscosity ([2]; 333.15 K, x1 = 1)?
Its viscosity is 4.99 ± 1 mPa·s.

What about the mass density ([2]; 333.15 K, x1 = 1) of the same compound?
The mass density was 984.3 ± 10 kg/m3.

With CCN(CC)CCO [(diethylamino)ethanol] as the compound, how does the viscosity ([1]; 293.15 K) read?
The viscosity was 4.848 ± 0.97 mPa·s.

What about the mass density ([1]; 293.15 K) of the same compound?
The mass density was 891.2 ± 10 kg/m3.

What about the viscosity ([1]; 303.15 K) of the same compound?
Its viscosity is 3.41 ± 0.68 mPa·s.

And the mass density ([1]; 303.15 K)?
Its mass density is 874.4 ± 10 kg/m3.

What about the viscosity ([1]; 313.15 K) of the same compound?
The viscosity was 2.466 ± 0.49 mPa·s.

And the mass density ([1]; 313.15 K)?
Its mass density is 865.4 ± 10 kg/m3.

What about the viscosity ([1]; 323.15 K) of the same compound?
The viscosity was 1.855 ± 0.37 mPa·s.

And the mass density ([1]; 323.15 K)?
Its mass density is 856.4 ± 10 kg/m3.

And the viscosity ([1]; 333.15 K)?
Its viscosity is 1.431 ± 0.29 mPa·s.

And the mass density ([1]; 333.15 K)?
The mass density was 845.6 ± 10 kg/m3.

Which results are given for O [water] + CCN(CC)CCO?
viscosity ([2]; 293.15 K, x2 = 0): 1.004 ± 0.2 mPa·s; viscosity ([2]; 303.15 K, x2 = 0): 0.813 ± 0.16 mPa·s; viscosity ([2]; 313.15 K, x2 = 0): 0.662 ± 0.13 mPa·s; mass density ([2]; 313.15 K, x2 = 0): 992.3 ± 10 kg/m3; viscosity ([2]; 323.15 K, x2 = 0): 0.57 ± 0.11 mPa·s; viscosity ([2]; 333.15 K, x2 = 0): 0.483 ± 0.097 mPa·s; mass density ([2]; 333.15 K, x2 = 0): 983.3 ± 10 kg/m3

With O [water] + NCCO as the compound, how does the viscosity ([2]; 293.15 K, x2 = 0) read?
Its viscosity is 1.004 ± 0.2 mPa·s.

What about the viscosity ([2]; 303.15 K, x2 = 0) of the same compound?
The viscosity was 0.813 ± 0.16 mPa·s.

What about the viscosity ([2]; 313.15 K, x2 = 0) of the same compound?
Its viscosity is 0.662 ± 0.13 mPa·s.

And the mass density ([2]; 313.15 K, x2 = 0)?
Its mass density is 992.3 ± 10 kg/m3.

What about the viscosity ([2]; 323.15 K, x2 = 0) of the same compound?
The viscosity was 0.57 ± 0.11 mPa·s.

And the viscosity ([2]; 333.15 K, x2 = 0)?
The viscosity was 0.483 ± 0.097 mPa·s.

And the mass density ([2]; 333.15 K, x2 = 0)?
The mass density was 983.3 ± 10 kg/m3.
